The target of assay [1] is T1, His-HAO1 (recombinant glycolate oxidase, 2-hydroxyacid oxidase) (Homo sapiens, UniProt Q9UJM8).
T1 sequence (Q9UJM8 1-370): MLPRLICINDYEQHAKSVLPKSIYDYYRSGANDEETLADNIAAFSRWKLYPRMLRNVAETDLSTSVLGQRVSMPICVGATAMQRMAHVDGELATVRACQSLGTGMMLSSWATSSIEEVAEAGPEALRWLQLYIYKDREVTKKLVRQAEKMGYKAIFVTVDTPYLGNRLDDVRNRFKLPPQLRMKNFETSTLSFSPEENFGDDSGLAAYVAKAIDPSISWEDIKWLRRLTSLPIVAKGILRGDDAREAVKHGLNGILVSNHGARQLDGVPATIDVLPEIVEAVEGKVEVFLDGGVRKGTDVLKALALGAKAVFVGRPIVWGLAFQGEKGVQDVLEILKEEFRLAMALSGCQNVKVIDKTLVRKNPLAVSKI
Briefly: SPR. Type of assay: binding.

For a further assay, the target named is T2, HAO1-HiBiT (Homo sapiens, UniProt Q9UJM8).
T2 sequence (Q9UJM8 1-370): T1 sequence (Q9UJM8 1-370)
As to the kind of experiment: SplitLuc CETSA in HEK293T lysate, LgBiT luminescence. It is filed as biochemical.

Assay [2] has as its target T1, His-HAO1 (recombinant glycolate oxidase, 2-hydroxyacid oxidase). Briefly: DSF thermal stabilisation, SYPRO Orange. It is filed as binding.
The target is the same in assay [3]. Briefly: Amplex Red activity assay. It is filed as biochemical.

With `NS(=O)(=O)c1ccc(Cc2c(-c3ccc(F)c(-c4ccc(Oc5nn[nH]c5C(=O)O)cc4)c3)nn(-c3nc(C(=O)O)cs3)c2CC2CC2)cc1F` [compound 1, Compound 1], the dissociation constant (Kd) (usually the free concentration of one partner at which half of the binding sites on the other are occupied at equilibrium, for simple one-to-one binding) in assay [1] was found to be 3.9 nM. Besides, the EC50 (usually the concentration at which the effect is half-maximal) was 2200 nM on HAO1-HiBiT and 5010 nM in assay [2]. For the same compound, in assay [3], the IC50 – broadly, the midpoint of a concentration-inhibition curve – was 25.1 nM.

Consider `O=C(O)c1nn[nH]c1Oc1ccc(-c2ccc(C3CC(F)(F)C3)cc2)cc1` [compound 2, Compound 2], for which, in assay [1], the dissociation constant Kd amounted to 4.4 nM. Further, the EC50 was 1800 nM at HAO1-HiBiT and 3980 nM in assay [2]. Further, in assay [3], the IC50 is 20 nM.

Source of the values: doi:10.1101/2024.06.26.600887v2 (biorxiv, 2024).
